Like-named read-outs stand apart in the source and are kept apart here. Values belong to the compound of their own block, whether it stands above or below them.
Columns and labels:
α-Glucosidase = biological target: T1, α-Glucosidase (Saccharomyces cerevisiae, UniProt P53341); experiment: biochemical
T1 construct: purchased Sigma Aldrich G0660-750UN
Description: α-Glucosidases, enzymes anchored in the brush border of the small intestine, are responsible for catalysing the hydrolysis of carbohydrates.
α-Glucosidase (G0660-750UN, Sigma Aldrich, St. Louis, MO) and 4-nitrophenyl α-D-glucopyranoside (PNPG, Macklin) were dissolved in phosphate buffer (pH 6.8, 100 mM), and the test compounds were dissolved in DMSO solution. The experiment was divided into blank group, control group, sample blank group and sample group. The reagents were loaded in 96-well plates at the dose of the table (Table 3). The solution was bathed in 37 °C water for 10 min, after the end, enzyme solution was added. After reaction at 37 °C for 20 min, 70 µL Na2CO3 solution ([…]) was added to stop the reaction. All experiments were run in triplicate. […] Since PNPG can produce glucose and p-nitrophenol (PNP) under the action of α-glucosidase, PNP has the greatest absorption at 405 nm. The absorbance was determined by the microplate reader, and the inhibition rate of α-glucosidase and the IC50 value of each sample were calculated according to the formula. Inhibition rate %={[(AC−AB)−(AS−ASB)]/(AC−AB)}×100% where AC is the absorbance of control group; AB is the absorbance of blank group; AS is the absorbance of sample group; ASB is the absorbance of sample blank group.

[1] = system: AGEs (advanced glycation end products) formation; experiment: In vitro inhibitory activity of AGEs formation (bovine serum albumin/glucose, fluorescence); conditions: 50% inhibition of fluorescence intensity of AGE relative to 0.1% DMSO; mean ± SD (n = 3)
Description: Advanced glycation end products are a group of complex and heterogeneous compounds, which are implicated in a number of biochemical abnormalities associated with diabetes[21]^,[22]. Therefore, the discovery of AGEs inhibitors would be beneficial to the prevention and treatment of diabetic or other pathogenic complications.
To prepare the AGE reaction solution, 10 mg/ml of bovine serum albumin in 50 mM PBS (pH 7.4) was added to 0.2 M glucose, and 0.02% sodium azide was added to prevent bacterial growth. The reaction mixture (3 ml) was then mixed with various concentrations (0.5–1000 µg/ml) of the target compounds (1 ml) dissolved in DMSO. After incubating at 37 °C for 14 d, the fluorescence intensity of AGE was determined by a fluorospectrophotometer (PE, Cincinnati, OH) with excitation and emission wavelengths at 350 nm and 420 nm[30], respectively. All experiments were run in triplicate. Aminoguanidine hydrochloride was used as a reference compound. The inhibition rate of AGEs formation and the IC50 value of each sample were calculated according to the formula. Inhibition rate %={[(AC−AB)−(AS−ASB)]/(AC−AB)}×100% where AC is the absorbance of control group (1.0 ml glucose +1.0 ml bovine serum albumin +1.0 ml sodium azide +1.0 ml DMSO); AB is the absorbance of blank group (1.0 ml PBS +1.0 ml bovine serum albumin +1.0 ml sodium azide +1.0 ml DMSO); AS is the absorbance of sample group (1.0 ml glucose +1.0 ml bovine serum albumin +1.0 ml sodium azide +1.0 ml target compound solution or aminoguanidine hydrochloride solution); ASB is the absorbance of sample blank group (1.0 ml PBS +1.0 ml bovine serum albumin +1.0 ml sodium azide +1.0 ml target compound solution or aminoguanidine hydrochloride solution).

aldose reductase (ALR2) = biological target: T2, aldose reductase (ALR2) (Mus musculus, UniProt P45376); experiment: In vitro ALR2 inhibitory activity (crude enzyme, NADPH decrease at 340 nm); type: biochemical, mice
T2 construct: After homogenisation and centrifugation, the crude ALR2 from mice was obtained; from tissue
Description: The enzyme aldose reductase (ALR2) is a member of the aldo–keto reductase superfamily. The development and progression of chronic diabetic complications are confirmed to be quite related to the activation and/or over expression of ALR2[25]. Therefore, ALR2 inhibitors may play a critical role in preventing or treating these complications.
After homogenisation and centrifugation, the crude ALR2 from mice was obtained. The inhibitory activity of the compounds on ALR2 was carried out using crude enzyme and different concentrations of the compounds (1–1000 µg/ml) in 200 mM PBS (pH 6.2) containing 0.10 mM NADPH. The reaction was initiated by addition of glyceraldehyde and the decrease in the optical density of NADPH at 340 nm was recorded for 3 min. All experiments were run in triplicate. IC50 of the compounds was calculated. The flavonoid quercetin was used as a reference in the ALR2 assay.

[2] = system: STZ-induced diabetic mice; experiment: Acute hypoglycaemic assay in STZ-diabetic mice; type: in vivo; conditions: for Blood glucose concentration: mean ± SEM, six mice
Description: The antidiabetic activity was determined by using a standard method. […] Especially, compound 7c caused significant decreases in blood glucose levels when compared with vehicle-treated groups (p < .05). […] In STZ-diabetic animals, the hypoglycaemic effect of pterostilbene (40 mg/kg of bw) was larger than 50% since 5 h and persisted throughout the experiment. Target compound 7c (40 mg/kg of bw) caused significant decreases in blood glucose levels compared with pterostilbene (40 mg/kg of bw).
Type II DM was induced in mice by a single intraperitoneal injection of freshly prepared STZ (Sigma Aldrich, St. Louis, MO) dissolved in 0.1 M citrate buffer, pH 4.5, in a […] of 120 mg/kg of bw. After seven days of STZ administration, blood glucose levels of each mouse were determined. Mice with blood glucose levels higher than 11 mM were considered diabetic and were included in the study.
STZ-induced diabetic mice and normal mice were placed in single cages with wire-net floors and deprived of food for 12 h before experimentation but allowed free access to tap water throughout. The compounds (at the doses of 10, 40, and 100 mg/kg of bw) were suspended in 0.05% Tween-80 in saline solution. Glibenclamide (10 mg/kg of bw) was suspended in the same vehicle. The target compounds were freshly prepared immediately before experimentation and administered by the intragastrical route at the doses of 10 ml/kg of bw. Control mice received only the vehicle (0.05% Tween-80 in saline solution) by the same route. Blood glucose levels were measured at 0, 1.5, 3, 5, 7, and 9 h after drugs administration.

[3] = read-out: IC50 value, α-Glucosidase inhibitory activity
[4] = read-out: IC50 value, ALR2 inhibitory activity
[5] = dose 40 mg/kg per os, 1.5 h vs 0 h
[6] = dose 40 mg/kg per os, 3 h vs 0 h
[7] = dose 40 mg/kg per os, 5 h vs 0 h
[8] = dose 40 mg/kg per os, 7 h vs 0 h
[9] = dose 40 mg/kg per os, 9 h vs 0 h

T1 sequence (P53341 whole entry): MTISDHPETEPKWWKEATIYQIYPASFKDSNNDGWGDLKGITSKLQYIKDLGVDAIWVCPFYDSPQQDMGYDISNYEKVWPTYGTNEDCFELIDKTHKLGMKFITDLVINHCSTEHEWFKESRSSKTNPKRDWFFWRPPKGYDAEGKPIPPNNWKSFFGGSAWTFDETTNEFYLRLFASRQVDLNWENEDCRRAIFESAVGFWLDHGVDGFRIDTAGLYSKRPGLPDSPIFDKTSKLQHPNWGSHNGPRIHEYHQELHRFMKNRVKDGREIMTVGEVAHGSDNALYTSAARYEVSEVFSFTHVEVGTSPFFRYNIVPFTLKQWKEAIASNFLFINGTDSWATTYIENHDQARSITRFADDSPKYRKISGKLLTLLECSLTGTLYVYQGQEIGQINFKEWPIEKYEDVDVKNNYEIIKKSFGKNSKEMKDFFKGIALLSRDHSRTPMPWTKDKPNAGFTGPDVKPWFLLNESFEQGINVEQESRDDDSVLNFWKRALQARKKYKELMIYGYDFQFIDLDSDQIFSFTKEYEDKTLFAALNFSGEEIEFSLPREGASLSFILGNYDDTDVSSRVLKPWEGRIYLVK

IC50 (α-Glucosidase; [3]): > 1000 µM
IC50 [1]: 2.9 ± 0.09 µM
IC50 (aldose reductase (ALR2); [4]): > 1000 µM
melting point: 142.2 to 143.2 °C
SMILES: COc1cc(/C=C/c2ccc(OCCO[N+](=O)[O-])cc2)cc(OC)c1 [3a, O4′-Nitrooxyethyl pterostilbene]

IC50 (α-Glucosidase; [3]): > 1000 µM
IC50 [1]: 2.39 ± 0.11 µM
IC50 (aldose reductase (ALR2); [4]): > 1000 µM
melting point: 110.9 to 111.3 °C
SMILES: COc1cc(/C=C/c2ccc(OCCCCO[N+](=O)[O-])cc2)cc(OC)c1 [3b]

SMILES: N=C(N)NN [AG, amino guanidine, reference compound]
IC50 [1]: 283 ± 8.52 µM

SMILES: COc1ccc(Cl)cc1C(=O)NCCc1ccc(S(=O)(=O)NC(=O)NC2CCCCC2)cc1 [Glibenclamide, reference compound]
Blood glucose concentration ([2]; dose 10 mg/kg per os, 0 h): 20.2 ± 5.4 mM
Blood glucose concentration ([2]; dose 10 mg/kg per os, 1.5 h): 11.6 ± 4.9 mM
% Variation of glycaemia ([2]; dose 10 mg/kg per os, 1.5 h vs 0 h): –42.63%
Blood glucose concentration ([2]; dose 10 mg/kg per os, 3 h): 7.6 ± 3.9 mM
% Variation of glycaemia ([2]; dose 10 mg/kg per os, 3 h vs 0 h): –62.32%
Blood glucose concentration ([2]; dose 10 mg/kg per os, 5 h): 6.1 ± 3.6 mM
% Variation of glycaemia ([2]; dose 10 mg/kg per os, 5 h vs 0 h): –69.58%
Blood glucose concentration ([2]; dose 10 mg/kg per os, 7 h): 5.7 ± 3.6 mM
% Variation of glycaemia ([2]; dose 10 mg/kg per os, 7 h vs 0 h): –71.84%
Blood glucose concentration ([2]; dose 10 mg/kg per os, 9 h): 5.6 ± 3.6 mM
% Variation of glycaemia ([2]; dose 10 mg/kg per os, 9 h vs 0 h): –72.11%

IC50 (α-Glucosidase; [3]): > 1000 µM
IC50 [1]: 1.99 ± 0.51 µM
IC50 (aldose reductase (ALR2); [4]): > 1000 µM
SMILES: COc1cc(/C=C/c2ccc(O)cc2)cc(OC)c1 [Pterostilbene, reference compound]
hypoglycaemic effect ([2]; 40 mg/kg of bw, STZ-diabetic animals, since 5 h and throughout the experiment): > 50%
Blood glucose concentration ([2]; dose 40 mg/kg per os, 0 h): 17.2 ± 7.0 mM
Blood glucose concentration ([2]; dose 40 mg/kg per os, 1.5 h): 12.1 ± 6.4 mM
% Variation of glycaemia [2, 5]: –29.91%
Blood glucose concentration ([2]; dose 40 mg/kg per os, 3 h): 10.2 ± 6.2 mM
% Variation of glycaemia [2, 6]: –40.89%
Blood glucose concentration ([2]; dose 40 mg/kg per os, 5 h): 8.4 ± 5.6 mM
% Variation of glycaemia [2, 7]: –51.42%
Blood glucose concentration ([2]; dose 40 mg/kg per os, 7 h): 7.7 ± 5.3 mM
% Variation of glycaemia [2, 8]: –55.36%
Blood glucose concentration ([2]; dose 40 mg/kg per os, 9 h): 6.9 ± 4.3 mM
% Variation of glycaemia [2, 9]: –59.82%

SMILES: O=c1c(O)c(-c2ccc(O)c(O)c2)oc2cc(O)cc(O)c12 [Quercetin, reference compound]
IC50 (aldose reductase (ALR2)): 3.71 ± 0.29 µM

SMILES: Oc1ccc(/C=C/c2cc(O)cc(O)c2)cc1 [Resveratrol, reference compound]
IC50 (α-Glucosidase): 242 ± 17 µM
IC50 [1]: 0.83 ± 0.21 µM
IC50 (aldose reductase (ALR2); [4]): 17 ± 0.31 µM
Blood glucose concentration ([2]; dose 40 mg/kg per os, 0 h): 20.0 ± 2.6 mM
Blood glucose concentration ([2]; dose 40 mg/kg per os, 1.5 h): 16.3 ± 2.9 mM
% Variation of glycaemia [2, 5]: –18.42%
Blood glucose concentration ([2]; dose 40 mg/kg per os, 3 h): 14.0 ± 2.0 mM
% Variation of glycaemia [2, 6]: –29.83%
Blood glucose concentration ([2]; dose 40 mg/kg per os, 5 h): 12.4 ± 2.1 mM
% Variation of glycaemia [2, 7]: –38.08%
Blood glucose concentration ([2]; dose 40 mg/kg per os, 7 h): 11.2 ± 1.8 mM
% Variation of glycaemia [2, 8]: –44.25%
Blood glucose concentration ([2]; dose 40 mg/kg per os, 9 h): 10.7 ± 1.4 mM
% Variation of glycaemia [2, 9]: –46.33%

From paper PMC7011920, “Synthesis and biological evaluation of stilbene derivatives coupled to NO donors as potential antidiabetic agents” (Journal of Enzyme Inhibition and Medicinal Chemistry, 2018)
